Data set [1] has as its target FABP5 (Homo sapiens (Human), UniProt Q01469). As to the kind of experiment: Fluorescence (ANS) competition binding assay, FABP5. As to conditions: ANS displacement. As to the method: (§1) This example illustrates a two-step fluorescence binding assay study used to determine the binding affinity of the various inhibitor compounds disclosed herein with the various FABPs: FABP3, FABP4, FABP5 and FABP7. Further secondary screening studies were carried out for compounds with high binding affinities toward the FABPs and based on their ability to activate the nuclear receptors PPARα, PPARγ, or PPARδ.
(§2) Binding assays for FABP3, FABP4, FABP5 and FABP7 were carried out by fluorescence titrations. His-tagged FABPs were bacterially expressed in E. coli, purified using Ni Sepharose beads, and the equilibrium dissociation constants (Kd) that characterize their interactions with different inhibitor compounds were measured by fluorescence competition assays. The method entails two steps as described in e.g., Lin, Q. et al., “Ligand selectivity of the peroxisome proliferator-activated receptor alpha,” Biochemistry 38, 185-190, doi:10.1021/bi9816094 [pii](1999). In the first step, Kd for the association of the protein with the fluorescent fatty acid probe ANS was measured. Protein (2 μM) was titrated with ANS from a concentrated solution in DMSO. Ligand binding was monitored by following the increase in the fluorescence of the ligand upon binding to the protein, and Kd for the association of ANS with the each FABP was computed from titration curves as described in e.g., Norris, A. W. & Li, E., “Fluorometric titration of the CRABPs,” Methods Mol Biol 89, 123-139 (1998)). In the second step, Kds for binding of non-fluorescent ligands were measured by monitoring their ability to displace ANS in the binding pocket of the protein. Each FABP was precomplexed with ANS at 1:1 molar ratio and titrated with the different compounds whose binding was reflected by a decrease in probe fluorescence. Kds were extracted from the EC50 of the competition curve and the measured Kd for ANS.

Data set [2] concerns the target FABP4 (Homo sapiens (Human), UniProt P15090). Kind of data set: Fluorescence (ANS) competition binding assay, FABP4. To be noted: ANS displacement. The protocol: as §1, §2
The target of data set [3] is FABP3 (Homo sapiens (Human), UniProt P05413). Kind of data set: Fluorescence (ANS) competition binding assay, FABP3. To be noted: ANS displacement. The protocol:
as §1, §2

For data set [4], the target named is FABP7 (Homo sapiens (Human), UniProt O15540). Kind of data set: Fluorescence (ANS) competition binding assay, FABP7. As to conditions: ANS displacement. The protocol: as §1, §2
A short description of data set [5]: Single dose IV and PO PK study in C57BL/6 mice. Format: in vivo. To be noted: mouse, plasma; male C57BL/6 mice, single oral dose 10 mg/kg. As to the method: C57BL/6 male mice or Han Wistar rats were used, n=3 for each administration route and compound. Single dose of each compound was administered orally (PO, 10 mg/Kg) or by intravenous administration (IV, 1 mg/Kg). Following intravenous and oral administration, blood samples (ca 0.2 mL) were collected and compound amount was measured by HLPC. For IV group, blood samples were collected at 0.083, 0.25, 0.5, 1, 2, 4, 6, 8, and 24 hours post-dose. For PO group, blood samples were collected at 0.25, 0.5, 1, 2, 4, 6, 8, and 24 hours post-dose.

The target of data set [6] is PPARα (Homo sapiens (Human), UniProt Q07869). As to the kind of experiment: Transcriptional activation assay in COS7 cells, PPARα. Format: cell-based. As to conditions: known agonist, 5 μM. The protocol:
COS-7 were cultured in 6-well plates and co-transfected with either a luciferase reporter driven by 3 copies of a PPRE and expression vector for either PPARδ, PPARα or PPARγ together with a vector harboring cDNA for β-galactosidase, serving as a transfection control. To test whether FABP4 or FABP5 mediate activation of their cognate receptors PPARγ and PPARδ, respectively, cells were also co-transfected with a plasmid harboring sequence of either FABP4 or FABP5. 18 h post-transfection, cells were placed in a serum-free medium and treated with agonist/compound. 18 h. later, cells were lysed, luciferase activity was assayed (Promega, WI, USA) and corrected for transfection efficiency by the activity of β-galactosidase.
Transcriptional activation assays were carried out utilizing COS7 cells as described above.

In general, Kd refers to the free concentration of one partner at which half of the binding sites on the other are occupied at equilibrium, for simple one-to-one binding. The bioavailability is dose-corrected exposure relative to a reference, in per cent. A lower bioavailability goes with poor availability.

Sequence of FABP3 (P05413 whole entry, species assumed): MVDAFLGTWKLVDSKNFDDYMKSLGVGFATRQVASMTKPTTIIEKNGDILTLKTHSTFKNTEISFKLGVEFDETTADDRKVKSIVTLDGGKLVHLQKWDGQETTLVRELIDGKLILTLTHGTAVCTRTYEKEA
Sequence of FABP4 (P15090 whole entry, species assumed): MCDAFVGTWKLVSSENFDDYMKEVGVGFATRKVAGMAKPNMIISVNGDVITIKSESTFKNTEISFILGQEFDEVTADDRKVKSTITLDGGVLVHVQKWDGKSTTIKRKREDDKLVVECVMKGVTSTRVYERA
Sequence of FABP5 (Q01469 whole entry, species assumed): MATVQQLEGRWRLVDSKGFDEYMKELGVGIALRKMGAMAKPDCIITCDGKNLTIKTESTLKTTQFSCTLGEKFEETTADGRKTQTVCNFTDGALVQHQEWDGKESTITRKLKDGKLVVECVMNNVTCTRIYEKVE
Sequence of FABP7 (O15540 whole entry, species assumed): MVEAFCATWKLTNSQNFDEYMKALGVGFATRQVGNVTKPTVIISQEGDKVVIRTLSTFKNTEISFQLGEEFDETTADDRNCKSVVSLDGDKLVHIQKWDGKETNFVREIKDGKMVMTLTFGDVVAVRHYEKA
Sequence of PPARα (Q07869 whole entry, species assumed): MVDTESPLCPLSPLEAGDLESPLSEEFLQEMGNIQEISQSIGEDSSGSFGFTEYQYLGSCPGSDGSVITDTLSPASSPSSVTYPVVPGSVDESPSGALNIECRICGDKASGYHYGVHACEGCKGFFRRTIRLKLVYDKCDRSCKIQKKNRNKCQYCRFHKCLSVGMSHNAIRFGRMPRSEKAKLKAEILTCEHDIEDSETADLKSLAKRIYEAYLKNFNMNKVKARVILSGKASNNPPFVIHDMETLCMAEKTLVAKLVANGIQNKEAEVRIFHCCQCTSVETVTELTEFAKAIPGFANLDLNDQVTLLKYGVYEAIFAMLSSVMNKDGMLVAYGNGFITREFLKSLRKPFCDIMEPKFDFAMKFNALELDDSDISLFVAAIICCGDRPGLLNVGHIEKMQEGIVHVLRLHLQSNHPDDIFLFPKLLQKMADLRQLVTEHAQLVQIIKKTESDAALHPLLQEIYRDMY

Take `CC(C)Oc1nc(NC(=O)CSC(C)(C)C(=O)O)c(Cl)cc1Cl` [PD153, 2-((2-((3,5-dichloro-6-isopropoxypyridin-2-yl)amino)-2-oxoethyl)thio)-2-methylpropanoic acid]: the equilibrium dissociation constant (Kd) in data set [1] was found to be 0.08 µM; in data set [2] it was 0.096 µM; in data set [3] it was 0.098 µM; in data set [4], 0.344 µM.

For the compound `CC(C)Oc1nc(NC(=O)COCC(=O)O)c(Cl)cc1Cl` [PD155, 2-(2-((3,5-dichloro-6-isopropoxypyridin-2-yl)amino)-2-oxoethoxy)acetic acid], the Kd in data set [1] came out at 0.059 µM; in data set [2], 0.079 µM; in data set [3], 0.117 µM; in data set [4] it was 0.108 µM.

With `CC(C)Oc1cc(NC(=O)CSCC(=O)O)c(Cl)cc1Cl` [Compound B4, 2-((2-((2,4-dichloro-5-isopropoxyphenyl)amino)-2-oxoethyl)thio)acetic acid, reference compound], the bioavailability in data set [5] came out at 47%.

For the compound `Cc1cccc(Nc2cc(Cl)nc(SCC(=O)O)n2)c1C` [Wy-14643, reference compound], the “Activation of transcription by PPARα” value in data set [6] is reported as “induced activation of their respective receptors”.

Source of the values: patent US20250325529A1, “INHIBITORS OF FATTY ACID BINDING PROTEINS (FABPs), METHODS OF USE AND METHODS OF MAKING” (Celloram, inc., priority 2024, published 2025).
